The values that follow come from ChEMBL document CHEMBL4706474, “Tetrahydro-2-naphthyl and 2-Indanyl Triazolopyrimidines Targeting Plasmodium falciparum Dihydroorotate Dehydrogenase Display Potent and Selective Antimalarial Activity” (J Med Chem, 2016).

Converted amounts (≈) assume the structure as drawn.

Data set [1] is described as follows: Unbound Cmax in Sprague-Dawley rat at 21.3 mg/kg, po measured over 24 hrs by LC-MS analysis. It is filed as ADME, organism-based. Conditions: in vivo.
Data set [2] has as its target Dihydroorotate dehydrogenase (quinone), mitochondrial (Homo sapiens, UniProt Q02127). The experiment in a line: Inhibition of N-terminal His6-tagged human DHODH expressed in Escherichia coli BL21 using L-DHO as substrate and CoQ as co-substrate by DCIP dye based spectrophotometric assay.
Data set [3] in a line: Unbound AUC (0 to infinity) in Sprague-Dawley rat at 1.8 mg/kg, iv by LC-MS analysis. It is filed as ADME, organism-based. Conditions: in vivo.
A short description of data set [4]: Oral bioavailability in Sprague-Dawley rat at 21.3 mg/kg measured over 24 hrs by LC-MS analysis. It is filed as ADME, organism-based. The settings on record: in vivo.
For data set [5], the system named is Plasmodium falciparum. Kind of data set: Antiplasmodial activity against Plasmodium falciparum 3D7 infected in NSG mouse assessed as blood AUC level require to show 90% reduction in parasitemia administered orally on day 3 post-infection QD for 4 days and measured after 24 hrs post dose by LC-MS/MS analysis. Conditions: time 4.0 day. It is filed as functional, organism-based.

In data set [6] the target is Cytochrome P450 2C9 (Homo sapiens, UniProt P11712). The experiment in a line: Inhibition of CYP2C9 in human liver microsomes using isoform-specific probe substrates in presence of NADPH-generating system by LC-MS analysis. It is filed as ADME. Background: Liver microsomes are vesicles of endoplasmic reticulum, rich in cytochrome P450 enzymes.
Sequence of Cytochrome P450 2C9 (P11712 whole entry, canonical isoform): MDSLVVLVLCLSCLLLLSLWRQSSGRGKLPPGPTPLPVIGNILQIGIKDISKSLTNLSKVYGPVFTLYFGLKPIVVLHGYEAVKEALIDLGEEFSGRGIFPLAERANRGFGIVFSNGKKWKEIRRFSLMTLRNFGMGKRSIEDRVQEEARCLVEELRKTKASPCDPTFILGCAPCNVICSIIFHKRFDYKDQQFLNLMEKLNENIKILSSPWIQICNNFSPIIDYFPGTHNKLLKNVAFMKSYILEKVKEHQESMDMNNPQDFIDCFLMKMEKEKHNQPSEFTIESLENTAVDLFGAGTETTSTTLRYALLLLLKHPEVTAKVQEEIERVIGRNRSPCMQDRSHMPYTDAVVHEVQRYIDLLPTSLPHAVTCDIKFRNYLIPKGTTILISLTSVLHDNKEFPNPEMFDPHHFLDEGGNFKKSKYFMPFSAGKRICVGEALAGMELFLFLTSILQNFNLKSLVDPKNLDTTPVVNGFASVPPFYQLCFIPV
Data set [7] is described as follows: Intrinsic clearance in human pooled liver microsomes assessed per mg protein at 1 uM by LC-MS analysis. The class given is ADME, Microsome. Conditions: microsomes, 1 µM.
Data set [8] can be described thus: AUC (0 to infinity) in Sprague-Dawley rat at 1.8 mg/kg, iv administered as infusion for 10 mins by LC-MS analysis. The class given is ADME, organism-based. Also noted: route intravenous, time 10 min, dose 1.8 mg/kg. Conditions: in vivo.
Data set [9] is described as follows: Volume of distribution at steady state in Sprague-Dawley rat at 1.8 mg/kg, iv administered as infusion for 10 mins by LC-MS analysis. It is filed as ADME, organism-based. Conditions: in vivo.
The nature of data set [10]: Unbound volume of distribution at steady state Sprague-Dawley in rat at 1.8 mg/kg, iv administered as infusion for 10 mins by LC-MS analysis. It is filed as ADME, organism-based. Conditions: in vivo.
A short description of data set [11]: Cmax in Sprague-Dawley rat at 21.3 mg/kg, po measured over 24 hrs by LC-MS analysis. Conditions: in vivo. It is filed as ADME, organism-based. The arrangement: route oral, dose 21.3 mg/kg, time >24.
Data set [12] in a line: Apparent half-life in Sprague-Dawley rat at 1.8 mg/kg, iv administered as infusion for 10 mins by LC-MS analysis. It is filed as ADME, organism-based. Conditions: in vivo, read-out: t1/2(app) (converted).
Data set [13] in a line: Protein binding in Sprague-Dawley rat plasma at 1.8 mg/kg, iv administered as infusion for 10 mins by LC-MS analysis. The class given is ADME, organism-based. The settings on record: read-out: PPB (converted).
A short description of data set [14]: Unbound clearance in Sprague-Dawley rat at 1.8 mg/kg, iv administered as infusion for 10 mins by LC-MS analysis. It is filed as ADME, organism-based. Conditions: in vivo.
Data set [15] can be described thus: Unbound AUC (0 to infinity) in Sprague-Dawley rat at 21.3 mg/kg, po measured over 24 hrs by LC-MS analysis. It is filed as ADME, organism-based. The settings on record: in vivo.
The test system of data set [16] is Plasmodium falciparum. The experiment in a line: Antiplasmodial activity against Plasmodium falciparum 3D7 infected in RBC assessed as reduction in parasitemia incubated for 72 hrs by SYBR green dye-based assay. It is filed as functional, organism-based. The settings on record: Plasmodium falciparum, 3D7, Erythrocyte, 72 h.
Data set [17] is described as follows: Inhibition of N-terminal His6-tagged dog DHODH expressed in Escherichia coli BL21 using L-DHO as substrate and CoQ as co-substrate by DCIP dye based spectrophotometric assay. Also noted: species or system Canis lupus familiaris.
The nature of data set [18]: Tmax in Sprague-Dawley rat at 21.3 mg/kg, po measured over 24 hrs by LC-MS analysis. It is filed as ADME, organism-based. The settings on record: in vivo.
Data set [19] can be described thus: Protein binding in mouse plasma assessed as bound fraction by LC-MS analysis based ultracentrifugation assay. It is filed as ADME, cell-free. The settings on record: read-out: PPB (converted).
The nature of data set [20]: Oral bioavailability in Sprague-Dawley rat at 17.5 mg/kg measured over 24 hrs by LC-MS analysis. The class given is ADME, organism-based. Conditions: in vivo.
Data set [21] is described as follows: Solubility of compound in FeSSIF at pH 5 measured after 5 to 6 hrs by HPLC-UV based analysis. The class given is physicochemical. The settings on record: simulated gi fluid, time 5-6 hrs.
Data set [22] can be described thus: Unbound Cmax in Sprague-Dawley rat at 17.5 mg/kg, po measured over 24 hrs by LC-MS analysis. The class given is ADME, organism-based. Conditions: in vivo.
Data set [23] is described as follows: Apparent half-life in rat Sprague-Dawley at […], iv administered as infusion for 10 mins by LC-MS analysis. It is filed as ADME, organism-based. The settings on record: in vivo, dose 1.6 mg/kg.
Data set [24] can be described thus: AUC (0 to infinity) in Sprague-Dawley rat at 17.5 mg/kg, po measured over 24 hrs by LC-MS analysis. The class given is ADME, organism-based. The arrangement: route oral, dose 17.5 mg/kg, time >24. Conditions: in vivo.
In data set [25] the target is Voltage-gated inwardly rectifying potassium channel KCNH2 (Homo sapiens, UniProt Q12809).
Sequence of Voltage-gated inwardly rectifying potassium channel KCNH2 (Q12809 whole entry, the tested form may be a part): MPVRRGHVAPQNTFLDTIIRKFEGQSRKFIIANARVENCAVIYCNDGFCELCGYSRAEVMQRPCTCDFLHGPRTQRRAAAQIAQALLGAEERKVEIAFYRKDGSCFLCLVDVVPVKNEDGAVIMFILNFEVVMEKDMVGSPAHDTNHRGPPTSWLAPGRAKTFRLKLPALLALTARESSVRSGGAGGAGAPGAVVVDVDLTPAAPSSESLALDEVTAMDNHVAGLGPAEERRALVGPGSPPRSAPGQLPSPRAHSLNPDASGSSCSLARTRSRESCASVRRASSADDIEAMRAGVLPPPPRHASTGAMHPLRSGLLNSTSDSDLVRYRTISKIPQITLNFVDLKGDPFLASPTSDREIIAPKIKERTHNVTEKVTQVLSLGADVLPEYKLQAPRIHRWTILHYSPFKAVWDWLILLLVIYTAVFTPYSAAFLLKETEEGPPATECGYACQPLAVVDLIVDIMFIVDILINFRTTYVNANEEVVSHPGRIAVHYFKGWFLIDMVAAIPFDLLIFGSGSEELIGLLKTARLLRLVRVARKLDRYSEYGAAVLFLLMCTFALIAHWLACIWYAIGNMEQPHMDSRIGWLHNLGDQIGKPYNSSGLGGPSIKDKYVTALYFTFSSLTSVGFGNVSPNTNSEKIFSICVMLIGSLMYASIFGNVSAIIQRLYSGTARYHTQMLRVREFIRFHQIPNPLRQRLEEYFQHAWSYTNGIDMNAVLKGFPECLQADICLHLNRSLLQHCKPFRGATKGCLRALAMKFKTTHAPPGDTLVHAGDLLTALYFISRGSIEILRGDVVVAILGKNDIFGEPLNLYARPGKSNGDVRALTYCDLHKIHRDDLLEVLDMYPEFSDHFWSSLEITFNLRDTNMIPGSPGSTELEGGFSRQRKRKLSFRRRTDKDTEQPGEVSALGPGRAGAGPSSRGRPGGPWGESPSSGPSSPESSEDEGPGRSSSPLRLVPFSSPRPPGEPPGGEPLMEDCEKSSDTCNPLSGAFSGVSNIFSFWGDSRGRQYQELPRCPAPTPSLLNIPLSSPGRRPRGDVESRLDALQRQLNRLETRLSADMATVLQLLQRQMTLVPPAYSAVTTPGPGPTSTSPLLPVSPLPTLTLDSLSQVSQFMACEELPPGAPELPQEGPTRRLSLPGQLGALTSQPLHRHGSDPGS
Description: Inhibition of human ERG by patch clamp electrophysiology assay
A short description of data set [26]: Protein binding in Sprague-Dawley rat plasma at […], iv administered as infusion for 10 mins by LC-MS analysis. The class given is ADME, organism-based. Conditions: dose 1.6 mg/kg, read-out: PPB (converted).
Data set [27] concerns the target T1, Cytochrome P450 2C8 (Homo sapiens, UniProt P10632).
T1 sequence (P10632 whole entry): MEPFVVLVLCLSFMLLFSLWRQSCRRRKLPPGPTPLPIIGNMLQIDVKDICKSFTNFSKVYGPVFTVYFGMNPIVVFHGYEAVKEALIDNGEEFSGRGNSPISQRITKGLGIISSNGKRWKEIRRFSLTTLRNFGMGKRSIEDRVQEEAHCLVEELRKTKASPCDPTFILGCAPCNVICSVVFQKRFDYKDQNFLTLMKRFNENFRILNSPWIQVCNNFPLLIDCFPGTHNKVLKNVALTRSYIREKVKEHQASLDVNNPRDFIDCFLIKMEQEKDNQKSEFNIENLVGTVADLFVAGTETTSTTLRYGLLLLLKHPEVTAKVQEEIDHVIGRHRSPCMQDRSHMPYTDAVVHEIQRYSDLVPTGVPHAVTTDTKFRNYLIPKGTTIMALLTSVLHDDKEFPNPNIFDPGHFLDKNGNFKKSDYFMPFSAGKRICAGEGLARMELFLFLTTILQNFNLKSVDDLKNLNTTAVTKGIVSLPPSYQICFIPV
Kind of data set: Inhibition of CYP2C8 in human liver microsomes using isoform-specific probe substrates in presence of NADPH-generating system by LC-MS analysis. The class given is ADME.

A short description of data set [28]: Volume of distribution at steady state in Sprague-Dawley rat at […], iv administered as infusion for 10 mins by LC-MS analysis. The settings on record: in vivo, dose 1.6 mg/kg. It is filed as ADME, organism-based.
Data set [29] in a line: Unbound AUC (0 to infinity) in Sprague-Dawley rat at […], iv by LC-MS analysis. It is filed as ADME, organism-based. The settings on record: in vivo, dose 1.6 mg/kg.
A short description of data set [30]: Unbound clearance in Sprague-Dawley rat at […], iv administered as infusion for 10 mins by LC-MS analysis. The class given is ADME, organism-based. Conditions: in vivo, dose 1.6 mg/kg.
Data set [31] can be described thus: Unbound AUC (0 to infinity) in Sprague-Dawley rat at 17.5 mg/kg, po measured over 24 hrs by LC-MS analysis. It is filed as ADME, organism-based. Conditions: in vivo.
Data set [32] in a line: AUC (0 to infinity) in Sprague-Dawley rat at […], iv administered as infusion for 10 mins by LC-MS analysis. It is filed as ADME, organism-based. Also noted: route intravenous, time 10 min, dose 1.6 mg/kg. The settings on record: in vivo.
A short description of data set [33]: Cmax in Swiss mouse at 20 mg/kg, po administered as single dose via gavage measured over 24 hrs by LC-MS analysis. It is filed as ADME, organism-based. The arrangement: route oral, dose 20 mg/kg, time >24. Conditions: in vivo.
A short description of data set [34]: Inhibition of yeast DHODH expressed in Plasmodium falciparum. Also noted: species or system Saccharomyces cerevisiae.
The nature of data set [35]: Tmax in Swiss mouse at 20 mg/kg, po administered as single dose via gavage measured over 24 hrs by LC-MS analysis. Conditions: in vivo. The class given is ADME, organism-based.

Sequence of Dihydroorotate dehydrogenase (quinone), mitochondrial (Q02127 whole entry): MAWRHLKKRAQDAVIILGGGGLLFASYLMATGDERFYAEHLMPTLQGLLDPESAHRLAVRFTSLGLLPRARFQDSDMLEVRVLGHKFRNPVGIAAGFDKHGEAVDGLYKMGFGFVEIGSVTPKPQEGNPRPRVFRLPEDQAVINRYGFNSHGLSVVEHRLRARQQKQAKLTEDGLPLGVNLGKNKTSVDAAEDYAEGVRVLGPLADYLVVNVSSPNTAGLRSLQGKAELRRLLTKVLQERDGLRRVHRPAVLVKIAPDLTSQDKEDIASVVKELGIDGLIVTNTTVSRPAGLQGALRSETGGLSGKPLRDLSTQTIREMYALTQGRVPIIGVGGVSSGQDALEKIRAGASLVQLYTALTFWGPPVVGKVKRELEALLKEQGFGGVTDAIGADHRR

Compound `Cc1cc(NC2Cc3cc(F)c(F)cc3C2)n2nc(C(C)(F)F)nc2n1` came in with a fCmax in data set [1] of 0.72 µM. The figures for the IC50 in data set [2], in data set [6] and in data set [17] were greater than 100 µM, 18.5 µM and greater than 100 µM, respectively. For the same compound, the values for the fAUC in data set [3] and in data set [15] were 1.57 µM·h and 11.7 µM·h, respectively. In data set [4], the bioavailability worked out at 63%. In addition, the AUCED90 in [5] came out at 137 µM.hr/day. In data set [7], this compound had a microsomal intrinsic clearance of less than 7 µL/min. This compound also yielded an AUC(0-inf) in data set [8] of 27.1 µM·h. In addition, the Vdss in data set [9] is 2.7 L/kg. In data set [10], this compound displayed a fVdss of 47 L/kg. Also, in data set [11], the Cmax turned out to be 12.5 µM. Further, the half-life in data set [12] is 11.2 h. In [13], the fraction unbound at 10 min was 0.058. In [14], this compound showed a CL free of 52 mL/min/kg. In addition, the EC50 in [16] worked out at 0.04 µM. Also, in data set [18], the Tmax came out at 4 h. In addition, in data set [19], the fraction unbound is 0.047.

As to `Cc1cc(N[C@H]2CCc3ccc(Cl)cc3C2)n2nc(C(C)(F)F)nc2n1`, the IC50 in data set [2] is greater than 100 µM; in data set [6], 2.1 µM; in data set [25] it was 1.5 µM; in data set [27], greater than 20 µM; in [17], greater than 100 µM. In addition, in data set [20], the bioavailability came out at 67%. The compound further registered a solubility in [21] of 36 µg/mL (≈ 95.3 µM). The AUCED90 in data set [5] was determined as 10.3 µM.hr/day. In data set [7], this compound registered a microsomal intrinsic clearance of less than 7 µL/min. This compound also displayed a fCmax in [22] of 0.12 µM. For the same compound, in data set [23], the “t1/2(app)” value turned out to be 5.9 h. The results for the AUC in data set [24] and in data set [32] were 24.6 µM·h and 3.5 µM·h, respectively. Moreover, the fraction unbound at 10 min in data set [26] is 0.035. For the same compound, the Vdss in [28] worked out at 6.7 L/kg. The results for the fAUC in data set [29] and in [31] were 0.12 µM·h and 0.89 µM·h, respectively. The compound further gave a CL free in data set [30] of 589 mL/min/kg. The same compound came in with a Cmax in [33] of 5 µM. Besides, the EC50 in [34] was determined as 8.6 µM; in [16] it was 0.0012 µM. In addition, in data set [35], the time to peak (Tmax) was found to be 1 h. In addition, the fraction unbound in data set [19] was 0.026.

One may read the IC50 as the concentration at which inhibition is half-maximal. One may read the bioavailability as dose-corrected exposure relative to a reference, in per cent. The low end stands for little systemic uptake, the high end for much systemic uptake. By AUC(0-inf) is commonly meant total exposure, with the tail of the curve extrapolated. Higher therefore signals more exposure. In general, Vdss refers to a proportionality between amount in the body and measured concentration, not a real space. The low end stands for confinement near the circulation, the high end for extensive tissue distribution. As usually defined, the Cmax is the peak of the concentration-time curve. The EC50 is the concentration at which the effect is half-maximal. In general, Tmax refers to the time from dosing to the highest level. Usually solubility stands for how much of the substance goes into solution per volume. What is called AUC is concentration integrated over time. A lower AUC goes with low exposure.
